Laboratory results reported in patent US9708314B2, “Heterocyclic amide compound” (NISSAN CHEMICAL INDUSTRIES, LTD., priority 2013, dated 2017).

Columns and labels:
Type in all cases: in vivo
[1] = test system: Echinochloa oryzacola Vasing.; assay: Test Example 2: herbicidal activity, application during weed generation in submerged conditions; details: Eighteenth Table; application herbicide amount 320 g/ha
Method in brief: (§1)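 Mixed sowings in flooded alluvial soil (4 cm water), greenhouse 25-30 °C; emulsifiable concentrate diluted in water applied to the water surface at the 1-2 leaf stage, rate in g/ha. Effect scored three weeks later on a 0-5 scale (5 = ≥90% herbicidal ratio, 0 = ≤5%).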

Monochoria vaginalis = assay: as above; details: Eighteenth Table; application herbicide amount 320 g/ha
Method in brief: as §1

Scirpus juncoides = assay: as above; details: Eighteenth Table; application herbicide amount 320 g/ha
Method in brief: as §1

Cyperus difformis = assay: Test Example 3: herbicidal effect by application to foliage (Wagner pot, water depth 0.1-0.5 cm); details: Nineteenth Table; application to foliage; application herbicide amount 320 g/ha
Method in brief: (§2)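 Seeds were sown in alluvial soil in Wagner pots, grown for 14 days at 25–30 °C, then sprayed uniformly on foliage with the emulsified compound diluted to a given rate per hectare. Injury was graded three weeks after treatment from 0 (≤5%) to 5 (≥90%).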

[2] = test system: Echinochloa crus-galli var. crus-galli; assay: as above; details: Nineteenth Table; application to foliage; application herbicide amount 320 g/ha
Method in brief: as §2

Leptochloa chinensis = assay: as above; details: Nineteenth Table; application to foliage; application herbicide amount 320 g/ha
Method in brief: as §2

[3] = test system: directly sowed Oryza sativa; assay: Test Example 3: effect on crop by application to foliage (Wagner pot, water depth 0.1-0.5 cm); details: Nineteenth Table; application to foliage; application herbicide amount 320 g/ha
Method in brief: as §2

SMILES	A (Echinochloa oryzicola Vasing.) herbicidal ratio grade [1]	C (Monochoria vaginalis) herbicidal ratio grade (Monochoria vaginalis)	B (Scirpus juncoides) herbicidal ratio grade (Scirpus juncoides)	E (herbicidal effect grade) (Cyperus difformis)	H (herbicidal effect grade) [2]	D (herbicidal effect grade) (Leptochloa chinensis)	b (effect on crop grade) [3]
Cn1nnnc1NC(=O)c1ccc(C(F)(F)F)n2c(COCC(F)(F)F)nnc12 [2-015]	4 (Herbicidal ratio of 70% or more and less than 90%)	4 (Herbicidal ratio of 70% or more and less than 90%)	5 (Herbicidal ratio of 90% or more (almost completely withered))	5 (Herbicidal ratio of 90% or more (almost completely withered))	5 (Herbicidal ratio of 90% or more (almost completely withered))	5 (Herbicidal ratio of 90% or more (almost completely withered))	4 (Herbicidal ratio of 70% or more and less than 90%)
CCC(C)c1nnc2c(C(=O)Nc3nnnn3C)ccc(C(F)(F)F)n12 (stereo not shown) [2-016]	5 (Herbicidal ratio of 90% or more (almost completely withered))	5 (Herbicidal ratio of 90% or more (almost completely withered))	5 (Herbicidal ratio of 90% or more (almost completely withered))	5 (Herbicidal ratio of 90% or more (almost completely withered))	5 (Herbicidal ratio of 90% or more (almost completely withered))	5 (Herbicidal ratio of 90% or more (almost completely withered))	5 (Herbicidal ratio of 90% or more (almost completely withered))
Cc1cc(-c2nnc3c(C(=O)Nc4nnnn4C)ccc(C(F)(F)F)n23)no1 [2-017]	5 (Herbicidal ratio of 90% or more (almost completely withered))	4 (Herbicidal ratio of 70% or more and less than 90%)	4 (Herbicidal ratio of 70% or more and less than 90%)	5 (Herbicidal ratio of 90% or more (almost completely withered))	5 (Herbicidal ratio of 90% or more (almost completely withered))	5 (Herbicidal ratio of 90% or more (almost completely withered))	5 (Herbicidal ratio of 90% or more (almost completely withered))
CCCc1nnc2c(C(=O)Nc3nnnn3C)ccc(C(F)(F)F)n12 [2-019]	4 (Herbicidal ratio of 70% or more and less than 90%)	4 (Herbicidal ratio of 70% or more and less than 90%)	3 (Herbicidal ratio of 40% or more and less than 70%)	5 (Herbicidal ratio of 90% or more (almost completely withered))	5 (Herbicidal ratio of 90% or more (almost completely withered))	5 (Herbicidal ratio of 90% or more (almost completely withered))	5 (Herbicidal ratio of 90% or more (almost completely withered))
Cn1nnnc1NC(=O)c1ccc(C(F)(F)F)n2c(COc3ccccc3)nnc12 [2-020]	2 (Herbicidal ratio of 20% or more and less than 40%)	0 (Herbicidal ratio of 5% or less (almost no effect))	2 (Herbicidal ratio of 20% or more and less than 40%)	4 (Herbicidal ratio of 70% or more and less than 90%)	4 (Herbicidal ratio of 70% or more and less than 90%)	4 (Herbicidal ratio of 70% or more and less than 90%)	4 (Herbicidal ratio of 70% or more and less than 90%)
Cn1nnnc1NC(=O)c1ccc(C(F)(F)F)n2c(C3CCCC3)nnc12 [2-021]	5 (Herbicidal ratio of 90% or more (almost completely withered))	4 (Herbicidal ratio of 70% or more and less than 90%)	4 (Herbicidal ratio of 70% or more and less than 90%)	5 (Herbicidal ratio of 90% or more (almost completely withered))	5 (Herbicidal ratio of 90% or more (almost completely withered))	5 (Herbicidal ratio of 90% or more (almost completely withered))	5 (Herbicidal ratio of 90% or more (almost completely withered))
Cn1nnnc1NC(=O)c1ccc(C(F)(F)F)n2c(C3CCOC3)nnc12 (stereo not shown) [2-022]	5 (Herbicidal ratio of 90% or more (almost completely withered))	4 (Herbicidal ratio of 70% or more and less than 90%)	5 (Herbicidal ratio of 90% or more (almost completely withered))	5 (Herbicidal ratio of 90% or more (almost completely withered))	5 (Herbicidal ratio of 90% or more (almost completely withered))	5 (Herbicidal ratio of 90% or more (almost completely withered))	5 (Herbicidal ratio of 90% or more (almost completely withered))
CC(C)c1nnc2c(C(=O)N(C)c3nnnn3C)ccc(C(F)(F)F)n12 [2-023]	0 (Herbicidal ratio of 5% or less (almost no effect))	1 (Herbicidal ratio of 5% or more and less than 20%)	1 (Herbicidal ratio of 5% or more and less than 20%)	0 (Herbicidal ratio of 5% or less (almost no effect))	4 (Herbicidal ratio of 70% or more and less than 90%)	1 (Herbicidal ratio of 5% or more and less than 20%)	1 (Herbicidal ratio of 5% or more and less than 20%)
CCSc1nnc2c(C(=O)Nc3nnnn3C)ccc(C(F)(F)F)n12 [2-024]	5 (Herbicidal ratio of 90% or more (almost completely withered))	4 (Herbicidal ratio of 70% or more and less than 90%)	4 (Herbicidal ratio of 70% or more and less than 90%)	5 (Herbicidal ratio of 90% or more (almost completely withered))	5 (Herbicidal ratio of 90% or more (almost completely withered))	5 (Herbicidal ratio of 90% or more (almost completely withered))	5 (Herbicidal ratio of 90% or more (almost completely withered))
CC(C)Sc1nnc2c(C(=O)Nc3nnnn3C)ccc(C(F)(F)F)n12 [2-025]	5 (Herbicidal ratio of 90% or more (almost completely withered))	5 (Herbicidal ratio of 90% or more (almost completely withered))	4 (Herbicidal ratio of 70% or more and less than 90%)	5 (Herbicidal ratio of 90% or more (almost completely withered))	5 (Herbicidal ratio of 90% or more (almost completely withered))	5 (Herbicidal ratio of 90% or more (almost completely withered))	5 (Herbicidal ratio of 90% or more (almost completely withered))
CCOCc1nnc2c(C(=O)Nc3nnnn3C)ccc(C(F)(F)F)n12 [2-026]	5 (Herbicidal ratio of 90% or more (almost completely withered))	4 (Herbicidal ratio of 70% or more and less than 90%)	5 (Herbicidal ratio of 90% or more (almost completely withered))	5 (Herbicidal ratio of 90% or more (almost completely withered))	5 (Herbicidal ratio of 90% or more (almost completely withered))	5 (Herbicidal ratio of 90% or more (almost completely withered))	5 (Herbicidal ratio of 90% or more (almost completely withered))
Cn1nnnc1NC(=O)c1ccc(C(F)(F)F)n2c(C(C)(C)C)nnc12 [2-027]	5 (Herbicidal ratio of 90% or more (almost completely withered))	4 (Herbicidal ratio of 70% or more and less than 90%)	4 (Herbicidal ratio of 70% or more and less than 90%)	5 (Herbicidal ratio of 90% or more (almost completely withered))	5 (Herbicidal ratio of 90% or more (almost completely withered))	5 (Herbicidal ratio of 90% or more (almost completely withered))	5 (Herbicidal ratio of 90% or more (almost completely withered))
Cn1nnnc1NC(=O)c1ccc(C(F)(F)F)n2c(C3=NOC(C)(C)C3)nnc12 [2-028]	5 (Herbicidal ratio of 90% or more (almost completely withered))	4 (Herbicidal ratio of 70% or more and less than 90%)	4 (Herbicidal ratio of 70% or more and less than 90%)	5 (Herbicidal ratio of 90% or more (almost completely withered))	5 (Herbicidal ratio of 90% or more (almost completely withered))	5 (Herbicidal ratio of 90% or more (almost completely withered))	5 (Herbicidal ratio of 90% or more (almost completely withered))
